Test results from US7291641B2, “Derivatives of heterocycles with 5 members, their preparation and their use as medicaments” (Societe de Conseils de Recherches et d'Applications …, priority 1999, dated 2007).

SMILES	melting point
CCCCOC(=O)NCCc1nc(-c2ccc(-c3ccc(Cl)cc3)cc2)c[nH]1 [Example 395, butyl 2-[4-(4′-chloro-1,1′-biphenyl-4-yl)-1H-imidazol-2-yl]ethylcarbamate]	164.2 °C
CCCCOC(=O)NCCc1nc(-c2ccc(-c3ccccc3F)cc2)c[nH]1 [Example 396, butyl 2-[4-(2′-fluoro-1,1′-biphenyl-4-yl)-1H-imidazol-2-yl]ethylcarbamate]	113.8 °C
CCCCOC(=O)NCCc1nc(-c2ccc(CC(C)C)cc2)c[nH]1 [Example 445, butyl 2-[4-(4-isobutylphenyl)-1H-imidazol-2-yl]ethylcarbamate]	95.5 °C
CC(C)Cc1ccc(-c2c[nH]c(CCNC(=O)OCc3ccccc3)n2)cc1 [Example 446, benzyl 2-[4-(4-isobutylphenyl)-1H-imidazol-2-yl]ethylcarbamate]	125.2 °C
CCCCOC(=O)NCCc1nc(-c2ccc(-c3ccc(F)c(Cl)c3)cc2)c[nH]1 [Example 447, butyl 2-[4-(3′-chloro-4′-fluoro-1,1′-biphenyl-4-yl)-1H-imidazol-2-yl]ethylcarbamate]	132.4 °C
CCCCOC(=O)NCCc1nc(-c2ccc(CCC)cc2)c[nH]1 [Example 449, butyl 2-[4-(4-propylphenyl)-1H-imidazol-2-yl]ethylcarbamate]	83.2 °C
CCCCOC(=O)NCCc1nc(-c2ccc(CC)cc2)c[nH]1 [Example 450, butyl 2-[4-(4-ethylphenyl)-1H-imidazol-2-yl]ethylcarbamate]	92.4 °C
CCCCOC(=O)NCCc1nc(-c2ccc(-c3ccc(C#N)cc3)cc2)c[nH]1 [Example 451, butyl 2-[4-(4′-cyano-1,1′-biphenyl-4-yl)-1H-imidazol-2-yl]ethylcarbamate]	147 °C
CCCCOC(=O)NCCc1nc(-c2ccc(-c3ccc(C(F)(F)F)cc3)cc2)c[nH]1 [Example 452, butyl 2-{4-[41-(trifluoromethyl)-1,1′-biphenyl-4-yl]-1H-imidazol-2-yl}ethylcarbamate]	168.5 °C
CCCCOC(=O)NCCc1nc(-c2ccc(-c3cccc(F)c3F)cc2)c[nH]1 [Example 455, butyl 2-[4-(2′,3′-difluoro-1,1′-biphenyl-4-yl)-1H-imidazol-2-yl]ethylcarbamate]	90 °C
CCCCOC(=O)NCCc1nc(-c2ccc(-c3cc(F)cc(F)c3)cc2)c[nH]1 [Example 457, butyl 2-[4-(3′,5′-difluoro-1,1′-biphenyl-4-yl)-1H-imidazol-2-yl]ethylcarbamate]	111.1 °C
CCCCOC(=O)NCCc1nc(-c2ccc(-c3ccccc3OC)cc2)c[nH]1 [Example 458, butyl 2-[4-(2′-methoxy-1,1′-biphenyl-4-yl)-1H-imidazol-2-yl]ethylcarbamate]	116 to 121 °C
CCCCOC(=O)NCCc1nc(-c2ccc(-c3cc(F)ccc3F)cc2)c[nH]1 [Example 460, butyl 2-[4-(2′,5′-difluoro-1,1′-biphenyl-4-yl)-1H-imidazol-2-yl]ethylcarbamate]	109.5 °C
CCCCOC(=O)NCCc1nc(-c2ccc(-c3cccc(OC)c3)cc2)c[nH]1 [Example 461, butyl 2-[4-(3′-methoxy-1,1′-biphenyl-4-yl)-1H-imidazol-2-yl]ethylcarbamate]	112 to 113 °C

The next lines start with the values.

melting point	SMILES
167.9 °C	CCCCOC(=O)NCCc1nc(-c2ccc(-c3ccc(SC)cc3)cc2)c[nH]1 [Example 397, butyl 2-{4-[4′-(methylthio)-1,1′-biphenyl-4-yl]-1H-imidazol-2-yl}ethylcarbamate]
142.6 °C	CCCCOC(=O)NCCc1nc(-c2ccc(-c3cccc(Cl)c3)cc2)c[nH]1 [Example 443, butyl 2-[4-(3′-chloro-1,1′-biphenyl-4-yl)-1H-imidazol-2-yl]ethylcarbamate]
141.5 °C	CCCCOC(=O)NCCc1nc(-c2ccc(-c3cccc(F)c3)cc2)c[nH]1 [Example 444, butyl 2-[4-(3′-fluoro-1,1′-biphenyl-4-yl)-1H-imidazol-2-yl]ethylcarbamate]
137.5 °C	CCCCOC(=O)NCCc1nc(-c2ccc(-c3ccc(Cl)c(Cl)c3)cc2)c[nH]1 [Example 448, butyl 2-[4-(3′,4′-dichloro-1,1′-biphenyl-4-yl)-1H-imidazol-2-yl]ethylcarbamate]
127 to 128 °C	CCCCOC(=O)NCCc1nc(-c2ccc(-c3ccccc3)cc2)c(CC)[nH]1 [Example 453, butyl 2-[4-(1,1′-biphenyl-4-yl)-5-ethyl-1H-imidazol-2-yl]ethylcarbamate]
99.7 °C	CCCCOC(=O)NCCc1nc(-c2ccc(-c3ccccc3Cl)cc2)c[nH]1 [Example 454, butyl 2-[4-(2′-chloro-1,1′-biphenyl-4-yl)-1H-imidazol-2-yl]ethylcarbamate]
109.6 °C	CCCCOC(=O)NCCc1nc(-c2ccc(-c3ccccc3Br)cc2)c[nH]1 [Example 456, butyl 2-[4-(2′-bromo-1,1′-biphenyl-4-yl)-1H-imidazol-2-yl]ethylcarbamate]
100.5 to 101.5 °C	CCCCOC(=O)NCCc1nc(-c2ccc(-c3cccc([N+](=O)[O-])c3)cc2)c[nH]1 [Example 459, butyl 2-[4-(3′-nitro-1,1′-biphenyl-4-yl)-1H-imidazol-2-yl]ethylcarbamate]
